Assay results as given in ChEMBL document CHEMBL3885881, “DrugMatrix”.

Species on record: Rattus norvegicus
Test: DrugMatrix - Regimen: Daily Repeat
Format: toxicity, organism-based, Sprague-Dawley
Design: regimen Daily Repeat, gender Male, age 6-8 weeks
Conditions: in vivo, po, route oral GAVAGE, […]; for ABSOLUTE BASOPHIL / ABSOLUTE EOSINOPHIL / ABSOLUTE LYMPHOCYTE / ABSOLUTE MONOCYTE / ABSOLUTE SEGMENTED NEUTROPHIL / BASOPHIL / EOSINOPHIL / ERYTHROCYTE COUNT / HEMATOCRIT / HEMOGLOBIN / LEUKOCYTE COUNT / LYMPHOCYTE / MEAN CORPUSCULAR HEMOGLOBIN / MEAN CORPUSCULAR HEMOGLOBIN CONCENTRATION / MEAN CORPUSCULAR VOLUME / MONOCYTE / NEUTROPHIL / NUCLEATED RED BLOOD CELLS / PLATELET COUNT: tissue Blood; for ALANINE AMINOTRANSFERASE / ALBUMIN / ALKALINE PHOSPHATASE / ASPARTATE AMINOTRANSFERASE / BLOOD UREA NITROGEN / CARBON DIOXIDE / CHLORIDE / CHOLESTEROL / CREATINE PHOSPHOKINASE / CREATININE / GLUCOSE / LACTATE DEHYDROGENASE / LIPASE / PHOSPHORUS / POTASSIUM / SODIUM / TOTAL BILIRUBIN / TOTAL PROTEIN / URIC ACID: tissue Plasma
[1] = 5 mg/kg, 120 h, dose level Low, time 5 day
[2] = 50 mg/kg, 72 h, dose level High, time 3 day
[3] = 50 mg/kg, 120 h, dose level High, time 5 day

SMILES: O=C(Nc1ccc(Cl)c(Cl)c1)c1cc(Cl)cc(Cl)c1O [3,3',4',5-TETRACHLOROSALICYLANILIDE]
- ABSOLUTE BASOPHIL [1]: 0 CELLS/uL
- ABSOLUTE EOSINOPHIL [1]: 0 CELLS/uL
- ABSOLUTE LYMPHOCYTE [1]: 11308.33 CELLS/uL
- ABSOLUTE MONOCYTE [1]: 94.67 CELLS/uL
- ABSOLUTE SEGMENTED NEUTROPHIL [1]: 1830.33 CELLS/uL
- BASOPHIL [1]: 0%
- EOSINOPHIL [1]: 0%
- ERYTHROCYTE COUNT [1]: 5.77 x10E6/uL
- HEMATOCRIT [1]: 35.8%
- HEMOGLOBIN [1]: 13.8 G/DL
- LEUKOCYTE COUNT [1]: 13.23 x10E3/uL
- LYMPHOCYTE [1]: 85.33%
- MEAN CORPUSCULAR HEMOGLOBIN [1]: 23.93 pg
- MEAN CORPUSCULAR HEMOGLOBIN CONCENTRATION [1]: 38.53 G/DL
- MEAN CORPUSCULAR VOLUME [1]: 62.1 fL
- MONOCYTE [1]: 0.67%
- NEUTROPHIL [1]: 14%
- NUCLEATED RED BLOOD CELLS [1]: 0.33 /100WBC
- PLATELET COUNT [1]: 1151 x10E3/uL
- ALANINE AMINOTRANSFERASE [1]: 59 u/L
- ALBUMIN [1]: 4.07 G/DL
- ALKALINE PHOSPHATASE [1]: 368.33 u/L
- ASPARTATE AMINOTRANSFERASE [1]: 97.67 u/L
- BLOOD UREA NITROGEN [1]: 14.33 mg/dL
- CARBON DIOXIDE [1]: 28.67 mmol/L
- CHLORIDE [1]: 101.33 MEQ/L
- CHOLESTEROL [1]: 63.33 mg/dL
- CREATINE PHOSPHOKINASE [1]: 534.67 u/L
- CREATININE [1]: 0.21 mg/dL
- GLUCOSE [1]: 164 mg/dL
- LACTATE DEHYDROGENASE [1]: 242 u/L
- LIPASE [1]: 11.33 u/L
- PHOSPHORUS [1]: 10.3 mg/dL
- POTASSIUM [1]: 5.94 MEQ/L
- SODIUM [1]: 143.17 MEQ/L
- TOTAL BILIRUBIN [1]: 0.13 mg/dL
- TOTAL PROTEIN [1]: 5.77 G/DL
- URIC ACID [1]: 1.63 mg/dL
- ABSOLUTE BASOPHIL [2]: 0 CELLS/uL
- ABSOLUTE EOSINOPHIL [2]: 28.67 CELLS/uL
- ABSOLUTE LYMPHOCYTE [2]: 9453.33 CELLS/uL
- ABSOLUTE MONOCYTE [2]: 0 CELLS/uL
- ABSOLUTE SEGMENTED NEUTROPHIL [2]: 884.67 CELLS/uL
- BASOPHIL [2]: 0%
- EOSINOPHIL [2]: 0.33%
- ERYTHROCYTE COUNT [2]: 5.84 x10E6/uL
- HEMATOCRIT [2]: 36.23%
- HEMOGLOBIN [2]: 13.87 G/DL
- LEUKOCYTE COUNT [2]: 10.37 x10E3/uL
- LYMPHOCYTE [2]: 91%
- MEAN CORPUSCULAR HEMOGLOBIN [2]: 23.83 pg
- MEAN CORPUSCULAR HEMOGLOBIN CONCENTRATION [2]: 38.33 G/DL
- MEAN CORPUSCULAR VOLUME [2]: 62.23 fL
- MONOCYTE [2]: 0%
- NEUTROPHIL [2]: 8.67%
- NUCLEATED RED BLOOD CELLS [2]: 0 /100WBC
- PLATELET COUNT [2]: 1272.33 x10E3/uL
- ALANINE AMINOTRANSFERASE [2]: 61.67 u/L
- ALBUMIN [2]: 4.1 G/DL
- ALKALINE PHOSPHATASE [2]: 432.67 u/L
- ASPARTATE AMINOTRANSFERASE [2]: 89.67 u/L
- BLOOD UREA NITROGEN [2]: 13.33 mg/dL
- CARBON DIOXIDE [2]: 31 mmol/L
- CHLORIDE [2]: 101.67 MEQ/L
- CHOLESTEROL [2]: 79.67 mg/dL
- CREATINE PHOSPHOKINASE [2]: 183.67 u/L
- CREATININE [2]: 0.21 mg/dL
- GLUCOSE [2]: 125.67 mg/dL
- LACTATE DEHYDROGENASE [2]: 128.33 u/L
- LIPASE [2]: 11.33 u/L
- PHOSPHORUS [2]: 10.67 mg/dL
- POTASSIUM [2]: 6.23 MEQ/L
- SODIUM [2]: 144.27 MEQ/L
- TOTAL BILIRUBIN [2]: 0.2 mg/dL
- TOTAL PROTEIN [2]: 5.8 G/DL
- URIC ACID [2]: 1.03 mg/dL
- ABSOLUTE BASOPHIL [3]: 0 CELLS/uL
- ABSOLUTE EOSINOPHIL [3]: 19.33 CELLS/uL
- ABSOLUTE LYMPHOCYTE [3]: 5934.67 CELLS/uL
- ABSOLUTE MONOCYTE [3]: 58 CELLS/uL
- ABSOLUTE SEGMENTED NEUTROPHIL [3]: 688 CELLS/uL
- BASOPHIL [3]: 0%
- EOSINOPHIL [3]: 0.33%
- ERYTHROCYTE COUNT [3]: 6.18 x10E6/uL
- HEMATOCRIT [3]: 36.87%
- HEMOGLOBIN [3]: 14 G/DL
- LEUKOCYTE COUNT [3]: 6.7 x10E3/uL
- LYMPHOCYTE [3]: 88.33%
- MEAN CORPUSCULAR HEMOGLOBIN [3]: 22.73 pg
- MEAN CORPUSCULAR HEMOGLOBIN CONCENTRATION [3]: 38.03 G/DL
- MEAN CORPUSCULAR VOLUME [3]: 59.67 fL
- MONOCYTE [3]: 0.67%
- NEUTROPHIL [3]: 10.67%
- NUCLEATED RED BLOOD CELLS [3]: 0 /100WBC
- PLATELET COUNT [3]: 1091 x10E3/uL
- ALANINE AMINOTRANSFERASE [3]: 49.33 u/L
- ALBUMIN [3]: 4.27 G/DL
- ALKALINE PHOSPHATASE [3]: 412 u/L
- ASPARTATE AMINOTRANSFERASE [3]: 76 u/L
- BLOOD UREA NITROGEN [3]: 15.67 mg/dL
- CARBON DIOXIDE [3]: 32 mmol/L
- CHLORIDE [3]: 101 MEQ/L
- CHOLESTEROL [3]: 77.33 mg/dL
- CREATINE PHOSPHOKINASE [3]: 289 u/L
- CREATININE [3]: 0.25 mg/dL
- GLUCOSE [3]: 133.33 mg/dL
- LACTATE DEHYDROGENASE [3]: 94.67 u/L
- LIPASE [3]: 11.67 u/L
- PHOSPHORUS [3]: 9.23 mg/dL
- POTASSIUM [3]: 5.61 MEQ/L
- SODIUM [3]: 145.93 MEQ/L
- TOTAL BILIRUBIN [3]: 0.13 mg/dL
- TOTAL PROTEIN [3]: 6.07 G/DL
- URIC ACID [3]: 1.03 mg/dL
